Where a name gives a salt, the structure may show the parent alone.

The record followed here is EPA's ToxRefDB 2.

Data set [1] deals with rat. Conditions: Subchronic oral toxicity in rodents, fischer, Water, dose end: 14 week, group: systemic.
Data set [2] relates to mouse. The note with it: Subchronic oral toxicity in rodents, b6c3f1, Water, dose end: 14 week, group: systemic.
Data set [3] relates to mouse. Conditions: Subchronic oral toxicity in rodents, b6c3f1, Gavage/Intubation, dose end: 13 week, group: systemic, systemic / hematology / methemoglobin / methemoglobin + systemic / pathology microscopic / bone marrow / hemosiderosis + systemic / ….
Data set [4] relates to rat. The note with it: Subchronic oral toxicity in rodents, fischer, Gavage/Intubation, dose end: 13 week, group: systemic, systemic / hematology / anemia / anemia - macrocytic + systemic / hematology / erythrocyte (rbc) count differential / erythrocyte (rbc) + ….
Data set [5] relates to rat. The note with it: Subchronic oral toxicity in rodents, fischer, Feed, dose end: 13 week, group: systemic.
Data set [6] has as its system mouse. The note with it: Carcinogenicity; b6c3f1; Oral; Feed; dose end: 103 week; group: systemic; systemic / in life observation / body weight / body weight + systemic / pathology microscopic / kidney / mineralization + systemic / ….
The subject of data set [7] is mouse. The note with it: Subchronic oral toxicity in rodents, b6c3f1, Feed, dose end: 13 week, group: systemic, systemic / pathology microscopic / kidney / mineralization + systemic / in life observation / body weight / body weight gain.
For data set [8], the system named is rat. Conditions: Carcinogenicity, fischer, Oral, Feed, dose end: 104 week, group: systemic.
The subject of data set [9] is rat. Conditions: Prenatal developmental toxicity study; other; Inhalation; Nose-Only; dose end: 16 GD; group: maternal; systemic / in life observation / body weight / body weight gain + systemic / in life observation / food consumption / food consumption.
For data set [10], the system named is rat. Conditions: Carcinogenicity; fischer; Oral; Feed; dose end: 103 week; group: systemic; systemic / pathology microscopic / pituitary gland / adenoma + systemic / pathology microscopic / pituitary gland / adenoma/carcinoma ….
For data set [11], the system named is mouse. The note with it: Carcinogenicity; b6c3f1; Oral; Feed; dose end: 103 week; group: systemic; systemic / in life observation / body weight / body weight.
For data set [12], the system named is dog. The note with it: Chronic toxicity; beagle; Oral; Feed; dose end: 12 month; group: systemic; systemic / in life observation / body weight / body weight + systemic / in life observation / clinical signs / inappetence + systemic / in ….
Data set [13] relates to mouse. The note with it: Prenatal developmental toxicity study, cd1, Oral, Gavage/Intubation, dose end: 15 GD.
The test system of data set [14] is rat. Conditions: Prenatal developmental toxicity study, other, Oral, Gavage/Intubation, dose end: 15 GD.
Data set [15] relates to rat. Conditions: Subchronic oral toxicity in rodents, fischer, Feed, dose end: 13 week, group: systemic, systemic / pathology microscopic / liver / vacuolization.
In data set [16] the test system is mouse. Conditions: Combined chronic toxicity/carcinogenicity; b6c3f1; Oral; Feed; dose end: 103 week; group: systemic; systemic / in life observation / body weight / body weight.
Data set [17] deals with rat. The note with it: Combined chronic toxicity/carcinogenicity, fischer, Oral, Feed, dose end: 103 week, group: systemic.
Data set [18] has as its system mouse. Conditions: Subchronic oral toxicity in rodents, b6c3f1, Feed, dose end: 13 week, group: systemic, systemic / in life observation / body weight / body weight.
The subject of data set [19] is mouse. The note with it: Subchronic oral toxicity in rodents, Feed, dose end: 28 day, group: systemic.
For data set [20], the system named is rat. Conditions: Combined chronic toxicity/carcinogenicity; sprague dawley; Oral; Feed; dose end: 104 week; group: systemic; systemic / pathology microscopic / lung / foam cell aggregation + systemic / hematology / erythrocyte (rbc) count differential / erythrocyte….
Data set [21] deals with mouse. The note with it: Subchronic oral toxicity in rodents, cd1, Feed, dose end: 13 week, group: systemic, systemic / clinical chemistry / alkaline phosphatase (alp/alk) / alkaline phosphatase (alp/alk) + systemic / pathology microscopic / liver….
Data set [22] relates to rat. Conditions: Multigenerational reproductive toxicity study, sprague dawley, Oral, Feed, dose end: 2 generation.
In data set [23] the test system is rabbit. The note with it: Prenatal developmental toxicity study, new zealand white, Oral, Gavage/Intubation, dose end: 18 GD, group: maternal.
The mark [24] stands for this setting: systemic / hematology / erythrocyte (rbc) count differential / erythrocyte (rbc) + systemic / hematology / hematocrit (hct) / hematocrit (….
The mark [25] stands for this setting: systemic / hematology / hematocrit (hct) / hematocrit (hct) + systemic / hematology / hemoglobin (hgb) / hemoglobin (hgb) + systemic / organ….
The mark [26] stands for this setting: systemic / organ weight / kidney / absolute + systemic / organ weight / kidney / relative to body weight + systemic / pathology microscopic….
Setting [27] is: systemic / organ weight / liver / absolute + systemic / organ weight / liver / relative to body weight + systemic / pathology microscopic / ….
Setting [28] is: systemic / pathology microscopic / kidney / mineralization.
Setting [29] is: systemic / in life observation / body weight / body weight + systemic / pathology microscopic / kidney / hyperplasia + systemic / pathology ….
[30] abbreviates: systemic / pathology microscopic / kidney / hyperplasia + systemic / pathology microscopic / urinary bladder / hyperplasia + systemic / ….
The mark [31] stands for this setting: group: developmental, systemic / in life observation / body weight / fetal weight.
Setting [32] is: group: maternal, systemic / in life observation / body weight / dam weight + systemic / in life observation / clinical signs / abnormal respiratory sounds + ….
Where [33] appears, read: group: maternal, systemic / in life observation / body weight / body weight gain + systemic / in life observation / clinical signs / fur (altered appearance….
[34] abbreviates: systemic / pathology microscopic / liver / fatty change.
Setting [35] is: systemic / pathology microscopic / pituitary gland / adenoma + systemic / pathology microscopic / adrenal gland / pheochromocytoma nos + ….
Setting [36] is: systemic / pathology microscopic / liver / infiltration cellular.
The mark [37] stands for this setting: group: maternal, systemic / in life observation / body weight / body weight gain.
Setting [38] is: group: offspring, developmental / offspring survival late / viability index / viability index + systemic / in life observation / body weight / offspring (pup….
Setting [39] is: group: offspring, systemic / in life observation / body weight / offspring (pup) weight.
The mark [40] stands for this setting: group: parental, systemic / in life observation / body weight / body weight + systemic / in life observation / body weight / body weight gain.
The mark [41] stands for this setting: group: parental, systemic / in life observation / body weight / body weight gain.
Where [42] appears, read: reproductive / offspring survival early / live fetuses / live fetuses.

In general, LOAEL refers to the lowest tested level that showed an adverse finding. What is called NOAEL is the highest tested level that showed no adverse finding. As for `CC(O)CCl` (stereo not drawn) [1-Chloro-2-propanol], the LOAEL in data set [1] (setting [24]) was found to be 100 mg/kg/day; in [2] (setting [26]), 340 mg/kg/day. Further, the NOAEL in data set [1] (setting [24]) came out at 35 mg/kg/day; in [2] (setting [26]), 170 mg/kg/day. Besides, the values for the LEL in data set [1] (setting [25]) and in [2] (setting [27]) were 5 mg/kg/day and 7 mg/kg/day, respectively. Also, the NEL in [1] (setting [25]) was under 5 mg/kg/day; in data set [2] (setting [27]), under 7 mg/kg/day.
For `Nc1cccc(Cl)c1` [3-Chloroaniline], in data set [3], the LEL was 10 mg/kg/day, the LOAEL amounted to 40 mg/kg/day, the NEL was under 10 mg/kg/day and the no-observed-adverse-effect level (NOAEL) was 20 mg/kg/day. In data set [4], the LEL was 10 mg/kg/day, the lowest-observed-adverse-effect level (LOAEL) stood at 20 mg/kg/day, the NEL is under 10 mg/kg/day and the no observed adverse effect level (NOAEL) was determined as 10 mg/kg/day.
Consider `NCCCCCCCCCCC(=O)O` [11-Aminoundecanoic acid], for which the LOAEL in [5] (systemic / pathology microscopic / kidney / hyperplasia + systemic / in life observation / body weight / body weight gain) worked out at 900 mg/kg/day; in [6], 1120 mg/kg/day; in data set [7], 2250 mg/kg/day; in data set [8] (setting [29]), 750 mg/kg/day. The NOAEL in data set [5] (systemic / pathology microscopic / kidney / hyperplasia + systemic / pathology microscopic / kidney / mineralization) was 750 mg/kg/day; in data set [6] it was under 1120 mg/kg/day; in data set [7], 1800 mg/kg/day; in data set [8] (setting [29]), 375 mg/kg/day. In addition, the LEL worked out at 450 mg/kg/day in [5] (setting [28]), 1120 mg/kg/day in [6], 2250 mg/kg/day in [7] and 375 mg/kg/day in data set [8] (setting [30]). Besides, the NEL in data set [5] (setting [28]) was under 450 mg/kg/day; in [6] it was under 1120 mg/kg/day; in data set [7], 1800 mg/kg/day; in [8] (setting [30]) it was under 375 mg/kg/day.
`COS(=O)(=O)OC` [Dimethyl sulfate]: in data set [9], the LEL is 0.7 ppm, the LOAEL was over 1.5 ppm, the NEL worked out at 0.1 ppm and the no observed adverse effect level (NOAEL) is at least 1.5 ppm.
Regarding `CN(C)[C@@H]1C(=O)C(C(N)=O)=C(O)[C@@]2(O)C(=O)C3=C(O)c4c(O)cccc4[C@@](C)(O)[C@H]3[C@H](O)[C@@H]12.Cl` [Oxytetracycline hydrochloride], the LEL in data set [10] was 1250 mg/kg/day; in data set [11], 1370 mg/kg/day; in [12] it was 125 mg/kg/day; in data set [13] (setting [31]), 1320 mg/kg/day; in data set [13] (group: maternal, systemic / in life observation / body weight / dam weight), 1670 mg/kg/day; in data set [14] (setting [31]) it was 1200 mg/kg/day. The LEL in data set [14] (setting [33]) was found to be 1200 mg/kg/day; in data set [15], 155 mg/kg/day; in data set [16], 1400 mg/kg/day; in data set [17] (setting [34]), 1000 mg/kg/day; in data set [18], 3750 mg/kg/day. The lowest observed adverse effect level (LOAEL) is over 2500 mg/kg/day in data set [10]; over 1370 mg/kg/day in [11]; 125 mg/kg/day in data set [12]; over 2100 mg/kg/day in [13] (setting [31]); over 2100 mg/kg/day in [13] (setting [32]); 1200 mg/kg/day in [14] (setting [31]). The LOAEL in data set [14] (setting [33]) is over 1500 mg/kg/day; in data set [15] it was over 2500 mg/kg/day; in [16] it was over 1400 mg/kg/day; in [17] (setting [35]), over 2000 mg/kg/day; in data set [18] it was 7500 mg/kg/day. Besides, the NEL was under 1250 mg/kg/day in [10]; 663 mg/kg/day in [11]; 50 mg/kg/day in data set [12]; under 1320 mg/kg/day in data set [13] (setting [31]); 1320 mg/kg/day in data set [13] (setting [32]); under 1200 mg/kg/day in data set [14] (setting [31]). For the same molecule, the NEL in data set [14] (setting [33]) was under 1200 mg/kg/day; in data set [15], under 155 mg/kg/day; in data set [16], 650 mg/kg/day; in [17] (setting [34]), under 1000 mg/kg/day; in data set [18], 1880 mg/kg/day. In addition, the NOAEL was at least 2500 mg/kg/day in data set [10]; at least 1370 mg/kg/day in data set [11]; 50 mg/kg/day in data set [12]; at least 2100 mg/kg/day in [13] (setting [31]); at least 2100 mg/kg/day in [13] (setting [32]); under 1200 mg/kg/day in data set [14] (setting [31]). For the same molecule, the no-observed-adverse-effect level (NOAEL) in [14] (setting [33]) was at least 1500 mg/kg/day; in data set [15], at least 2500 mg/kg/day; in data set [16] it was at least 1400 mg/kg/day; in [17] (setting [35]) it was at least 2000 mg/kg/day; in data set [18], 3750 mg/kg/day.
In the case of `Oc1cc(Cl)ccc1Oc1ccc(Cl)cc1Cl` [Triclosan], the LOAEL in data set [19] (systemic / clinical chemistry / alkaline phosphatase (alp/alk) / alkaline phosphatase (alp/alk) + systemic / clinical chemistry / alanine …) was 136 mg/kg/day; in [20] it was 15 mg/kg/day; in data set [21] it was 25 mg/kg/day; in data set [22] (setting [37]) it was over 150 mg/kg/day; in [22] (setting [38]), 150 mg/kg/day; in data set [22] (setting [40]), 150 mg/kg/day. For the same molecule, in data set [23] (systemic / in life observation / body weight / body weight + systemic / in life observation / food consumption / food consumption), the LOAEL is 150 mg/kg/day. In addition, the LEL came to 6.48 mg/kg/day in data set [19] (setting [36]); 15 mg/kg/day in data set [20]; 25 mg/kg/day in data set [21]; 150 mg/kg/day in data set [22] (setting [37]); 15 mg/kg/day in data set [22] (setting [39]); 15 mg/kg/day in [22] (setting [41]). For the same molecule, the LEL in [23] (setting [42]) is 15 mg/kg/day. Moreover, the NEL in data set [19] (setting [36]) is under 6.48 mg/kg/day; in data set [20], under 15 mg/kg/day; in data set [21] it was under 25 mg/kg/day; in data set [22] (setting [37]) it was 50 mg/kg/day; in data set [22] (setting [39]) it was under 15 mg/kg/day; in data set [22] (setting [41]) it was under 15 mg/kg/day. In data set [23] (setting [42]), this molecule yielded an NEL of under 15 mg/kg/day. For the same molecule, the NOAEL in [19] (systemic / pathology microscopic / liver / infiltration cellular + systemic / clinical chemistry / alkaline phosphatase (alp/alk) / alkaline…) was 6.48 mg/kg/day; in data set [20], under 15 mg/kg/day; in [21], under 25 mg/kg/day; in data set [22] (setting [37]) it was at least 150 mg/kg/day; in [22] (setting [38]), 50 mg/kg/day; in data set [22] (setting [40]), 50 mg/kg/day. Also, the NOAEL in [23] (systemic / in life observation / body weight / body weight + systemic / in life observation / food consumption / food consumption + …) was found to be 50 mg/kg/day.
